This note sets out measurements from ChEMBL document CHEMBL1201862, “PubChem BioAssay data set” (2004).

Activity calls are given as the source filed them. Where only a bound is given, the exact number is not on record here.

As usually defined, the IC50 is the midpoint of a concentration-inhibition curve. Usually EC50 stands for the concentration needed to bring the measured effect to its halfway point. What is called AC50 is the midpoint of the concentration-response curve, whichever way the signal moves.

Assay [1] is described as follows: human group III sPLA2 inhibitors, dose response, biochemical, QFRET, IC50 (AID 743457).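 Also: green fluorescence rise as the enzyme cleaves BODIPY PC-A2 in liposomes; potency for inhibition of the enzyme.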
Assay [2] can be described thus: cells. The assay is classed as functional, cell-based.
Assay [3] concerns the target T1, Trace amine-associated receptor 1 (Homo sapiens, UniProt Q96RJ0).
T1 sequence (Q96RJ0 whole entry): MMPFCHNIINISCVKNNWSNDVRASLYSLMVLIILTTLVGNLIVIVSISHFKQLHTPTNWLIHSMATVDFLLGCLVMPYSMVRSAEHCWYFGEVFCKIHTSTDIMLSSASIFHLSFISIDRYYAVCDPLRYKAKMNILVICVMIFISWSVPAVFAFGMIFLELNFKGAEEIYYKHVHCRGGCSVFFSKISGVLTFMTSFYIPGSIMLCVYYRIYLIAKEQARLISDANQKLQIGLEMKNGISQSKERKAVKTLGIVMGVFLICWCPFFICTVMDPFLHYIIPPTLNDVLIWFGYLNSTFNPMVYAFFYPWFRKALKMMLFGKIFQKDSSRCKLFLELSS
The experiment in a line: Fluorescence-based cell-based high throughput dose response assay to identify agonists of the human trace amine associated receptor 1 (TAAR1). The assay is classed as functional.

Assay [4] concerns the target T1, Trace amine-associated receptor 1. The experiment in a line: Counterscreen for agonists of the human trace amine associated receptor 1 (hTAAR1): Fluorescence-based cell-based high throughput dose response assay to identify hTAAR1 agonist that also desensitize TAAR1 receptor response. It is filed as functional. On the technique in general: Counterscreens check selectivity or assay interference.

The nature of assay [5]: cells. The assay is classed as functional, cell-based. The source holds these as a separate data set.
In assay [6] the test system is CHO-K1. The assay can be described thus: Counterscreen for antagonists of the orexin 1 receptor (OX1R; HCRTR1): Homogeneous time resolved fluorescence (HTRF)-based cell-based dose response assay to identify antagonists of the parental CHO-K1 cell line. [Related pubchem assays (depositor defined):AID434989, AID435008, AID463079, AID485270, AID492963, AID492964, AID492965, AID493232, AID504699, AID504701]. The assay is classed as functional. The following applies: Cricetulus griseus.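 Also: potency for inhibition of ATP-stimulated IP1 production as antagonists.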

The nature of assay [7]: Counterscreen for antagonists of the orexin 1 receptor (OX1R; HCRTR1): Fluorescence-based cell-based high throughput dose response assay to identify antagonists of the parental CHO cell line. [Related pubchem assays (depositor defined):AID434989, AID435008, AID463079, AID485270, AID492963, AID492964, AID492965, AID493232, AID504699, AID504701]. It is filed as functional.

Assay [8] has as its target T2, Orexin/Hypocretin receptor type 1 (Homo sapiens, UniProt O43613).
T2 sequence (O43613 whole entry): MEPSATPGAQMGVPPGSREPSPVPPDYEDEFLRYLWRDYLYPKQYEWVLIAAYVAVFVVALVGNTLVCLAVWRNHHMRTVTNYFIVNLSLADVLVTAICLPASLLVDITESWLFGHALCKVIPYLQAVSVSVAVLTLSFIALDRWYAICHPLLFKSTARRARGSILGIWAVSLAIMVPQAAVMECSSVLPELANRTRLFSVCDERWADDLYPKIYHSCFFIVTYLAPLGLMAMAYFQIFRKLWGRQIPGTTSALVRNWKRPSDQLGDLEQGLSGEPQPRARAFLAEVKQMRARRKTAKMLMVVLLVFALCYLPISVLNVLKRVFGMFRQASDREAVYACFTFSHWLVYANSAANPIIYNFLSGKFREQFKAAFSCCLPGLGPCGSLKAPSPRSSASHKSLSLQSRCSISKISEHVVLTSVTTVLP
The assay can be described thus: Homogeneous Time Resolved Fluorescence (HTRF)-based cell-based high throughput dose response assay for antagonists of the orexin 1 receptor (OX1R; HCRTR1). [Related pubchem assays (depositor defined):AID434989, AID435008, AID463079, AID485270, AID492963, AID492964, AID492965, AID493232, AID504717, AID504718]. It is filed as functional.

Assay [9] addresses T2, Orexin/Hypocretin receptor type 1. The experiment in a line: Fluorescence-based cell-based high throughput dose response assay for antagonists of the orexin 1 receptor (OX1R; HCRTR1). [Related pubchem assays (depositor defined):AID434989, AID435008, AID463079, AID485270, AID492963, AID492964, AID492965, AID493232, AID504717, AID504718]. It is filed as functional.
The target in assay [10] is T3, X-box-binding protein 1 (Homo sapiens, UniProt P17861).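 Also: confirmatory dose-response counter-screen serving a CHOP assay.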
T3 sequence (P17861 whole entry): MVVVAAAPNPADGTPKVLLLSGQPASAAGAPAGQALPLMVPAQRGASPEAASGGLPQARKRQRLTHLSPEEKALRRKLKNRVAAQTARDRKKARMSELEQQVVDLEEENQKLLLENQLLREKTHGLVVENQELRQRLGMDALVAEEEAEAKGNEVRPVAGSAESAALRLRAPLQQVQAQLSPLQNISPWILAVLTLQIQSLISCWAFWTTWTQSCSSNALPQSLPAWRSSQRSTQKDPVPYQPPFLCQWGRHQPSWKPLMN
It is filed as functional, Cricetulus griseus.

Assay [11] concerns the target T4, Insulin-degrading enzyme (Homo sapiens, UniProt P14735).
T4 sequence (P14735 whole entry): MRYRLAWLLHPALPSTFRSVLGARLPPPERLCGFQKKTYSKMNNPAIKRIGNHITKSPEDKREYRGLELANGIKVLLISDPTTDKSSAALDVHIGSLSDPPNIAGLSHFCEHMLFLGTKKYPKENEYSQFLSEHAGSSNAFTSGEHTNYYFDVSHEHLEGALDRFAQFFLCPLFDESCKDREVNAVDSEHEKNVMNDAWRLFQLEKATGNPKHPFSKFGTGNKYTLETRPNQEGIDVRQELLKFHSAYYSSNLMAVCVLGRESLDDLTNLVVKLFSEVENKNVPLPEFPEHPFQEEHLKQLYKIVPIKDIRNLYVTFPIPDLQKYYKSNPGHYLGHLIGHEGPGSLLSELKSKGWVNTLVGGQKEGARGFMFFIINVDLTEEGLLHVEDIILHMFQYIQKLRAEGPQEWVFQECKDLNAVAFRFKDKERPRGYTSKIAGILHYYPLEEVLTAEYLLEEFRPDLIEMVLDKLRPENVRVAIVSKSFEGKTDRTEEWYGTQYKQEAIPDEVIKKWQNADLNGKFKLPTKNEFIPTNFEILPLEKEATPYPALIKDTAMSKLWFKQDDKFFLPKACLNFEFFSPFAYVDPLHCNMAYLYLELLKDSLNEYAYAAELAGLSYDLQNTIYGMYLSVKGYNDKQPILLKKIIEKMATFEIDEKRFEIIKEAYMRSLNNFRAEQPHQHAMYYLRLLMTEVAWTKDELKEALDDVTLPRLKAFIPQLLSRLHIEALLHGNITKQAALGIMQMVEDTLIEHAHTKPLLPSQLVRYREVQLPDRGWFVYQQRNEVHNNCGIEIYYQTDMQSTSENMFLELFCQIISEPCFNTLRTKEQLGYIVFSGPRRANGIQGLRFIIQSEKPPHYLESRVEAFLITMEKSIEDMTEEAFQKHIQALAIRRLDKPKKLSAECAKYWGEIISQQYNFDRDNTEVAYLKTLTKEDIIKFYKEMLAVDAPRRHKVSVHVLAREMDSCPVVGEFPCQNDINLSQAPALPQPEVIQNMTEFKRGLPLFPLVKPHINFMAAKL
The experiment in a line: activators of recombinant IDE enzyme, dose response, counter-screen for IDE activator project, biochemical, fluorescence polarization (AID 588681).

The target in assay [12] is T4, Insulin-degrading enzyme. The assay can be described thus: activators of endogenous IDE in HEK cells, dose response, cell-based, fluorescence polarization (AID 588439). The assay is classed as functional.
Assay [13] deals with INS1. The experiment in a line: beta cell apoptosis inhibitors, cytokine rescue, dose response, luminescence, retest (AID 449756).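 Also: cell death triggered by IL-1 beta plus TNF-alpha plus IFN-gamma mixture; protective hits raise ATP signal compared with cytokine alone wells.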 It is filed as functional, cell-based. The following applies: Rattus norvegicus.
Assay [14] relates to HEK293. The assay can be described thus: HEK cell cytotoxicity by LDH release, dose response, cytotoxicity control for IDE activator project, fluorescence, HEK cells (AID 588440).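 Also: cytotoxicity by LDH release measuring loss of membrane integrity.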 It is filed as functional, cell-based. Conditions: Homo sapiens. Background: Release of lactate dehydrogenase indicates damage to the cell membrane.
Assay [15] concerns HEK293. The experiment in a line: optical interference in Abeta FP readout, dose response, artefact control for IDE activator project, biochemical, fluorescence polarization (AID 588442). It is filed as functional, cell-based. Conditions: Homo sapiens. Background: Polarisation of emitted light reports the rotation of a fluorescent probe.
Assay [16] concerns the target T5, Orexin receptor type 2 (Homo sapiens, UniProt O43614).
T5 sequence (O43614 whole entry): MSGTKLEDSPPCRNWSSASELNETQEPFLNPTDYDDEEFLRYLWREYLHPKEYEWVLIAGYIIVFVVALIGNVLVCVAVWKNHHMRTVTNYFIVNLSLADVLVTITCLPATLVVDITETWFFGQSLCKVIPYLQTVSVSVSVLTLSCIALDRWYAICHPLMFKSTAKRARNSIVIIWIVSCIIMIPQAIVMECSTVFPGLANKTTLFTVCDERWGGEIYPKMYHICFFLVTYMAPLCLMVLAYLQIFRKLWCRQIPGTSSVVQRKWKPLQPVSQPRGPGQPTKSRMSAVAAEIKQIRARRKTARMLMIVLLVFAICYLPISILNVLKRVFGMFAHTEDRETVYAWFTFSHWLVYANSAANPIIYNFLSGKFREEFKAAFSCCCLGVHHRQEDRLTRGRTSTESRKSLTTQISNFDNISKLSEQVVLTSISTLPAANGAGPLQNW
The experiment in a line: Counterscreen assay for antagonists of the orexin 1 receptor (OX1R; HCRTR1): Fluorescence-based cell-based dose response assay for antagonists of the orexin 2 receptor (OX2R; HCRTR2), run by assay provider. The assay is classed as functional.

Assay [17] has as its target T5, Orexin receptor type 2. The assay can be described thus: Counterscreen assay for antagonists of the orexin 1 receptor (OX1R; HCRTR1): Homogeneous Time Resolved Fluorescence (HTRF)-based cell-based dose response assay for antagonists of the orexin 2 receptor (OX2R; HCRTR2), run by assay provider. The assay is classed as functional.
Assay [18] in a line: inhibitors of HIV Env-driven cell fusion, dose response, cherry-pick (AID 652057). It is filed as functional, cell-based.
Assay [19] can be described thus: CEM21 lymphoblast cell cytotoxicity, dose response, cytotoxicity control for viral fusion inhibitor project, CellTiter-Glo luminescence, cherry-picked (AID 652042).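 Also: potency for signal decrease meaning cytotoxicity.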 The assay is classed as functional, cell-based.
Assay [20] can be described thus: ZM109 Env clade C HIV-1 fusion inhibitors, dose response, HeLa effector, CEM target cells, luciferase, cherry-pick (AID 652058). The assay is classed as functional, cell-based.
Assay [21] in a line: off-target signal loss in HeLa-CEM21 co-culture – HeLa F-luc CTL cells, cherry-picked, counter-screen for HIV-1 Env fusion inhibitor project, dose response (AID 652040).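 Also: potency for signal decrease marking cytotoxic or nonspecific inhibition.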 It is filed as functional, cell-based.
The nature of assay [22]: inhibitors of clade B AD8 Env fusion, dose response, cell-based, cherry-pick (AID 652062).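 Also: luciferase signal from cell-cell fusion driven by HIV-1 clade B AD8 Env; potency is for inhibitors of fusion seen as a drop in luminescence.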 It is filed as functional.

On to `CCN(CC)c1ccc(-c2nnc(S)n2-c2ccccc2)cc1`, for which the IC50 in assay [1] was > 122 µM (inactive).

With `CC(C)=C1C2CCC1C(C(=O)NCCc1ccccc1)C2C(=O)O` (stereo not drawn), the IC50 was > 29.9 µM (inactive) in assay [2] and 2.42 µM (active) in [4]. Besides, the 50% effective concentration (EC50) in [3] is 0.189 µM (active); in assay [5], > 29.9 µM (inactive).

Take `COc1ccc(OCc2n(CC(=O)OC3CC(C)CCC3C(C)C)c3ccccc3[n+]2C)cc1.[Cl-]` (stereo not drawn): the IC50 is > 66.2 µM (inactive) in assay [6]; 15.3 µM (inactive) in assay [7]; 63.1 µM (inactive) in assay [8]; 8.69 µM (active) in [9]; 17 µM (inactive) in assay [14]; 8.9 µM (active) in assay [16]. For the same molecule, in assay [17], the IC50 is > 50 µM (inactive). The “Absolute IC50 (XBP1)” value in assay [10] was 10 µM. Moreover, the EC50 was > 54.7 µM (inactive) in assay [11], 15.5 µM (inactive) in assay [12] and > 54.7 µM (inactive) in assay [15]. In addition, the half-maximal activity concentration (AC50) in [13] was 3.9 µM (active); in assay [18], 9.99 µM (active); in assay [19], 9.49 µM (active); in [20], 16.4 µM (active); in assay [21], 17.2 µM (active); in assay [22], 11 µM (active).

As to `CCCCC(=O)Nc1ccc(C(=O)NNC(=S)NC(=O)c2cccs2)cc1`, the IC50 in assay [1] was 63.5 µM (inactive).
